US20140323501A1, “AMINO-PROPYLENE-GLYCOL DERIVATIVES, PREPARATION METHOD AND PHARMACEUTICAL COMPOSITION AND USE THEREOF” (INSTITUTE OF MATERIA MEDICA, CHINESE ACADEMY OF MEDICAL …, priority 2011, published 2014)

How the values were obtained:
[1] = system: SD rat peripheral blood lymphocyte counts; assay: Effect of S1P1 receptor agonists on rat vein (peripheral) blood lymphocyte counts; type: in vivo; settings: for LYM 0 h: before administration; for Δ %: largest decrease of lymphocyte count vs 0 h
Protocol: 10 mg of drugs were measured and placed in a mortar. After 4 mL of 5‰ CMC-Na were added, homogenous suspension was prepared in the mortar (one drop of twain-80 was added to help dissolving). Dosage: 10 mg/Kg, dose volume: 0.4 mL/100 g, intragastric administration.
Every medicated group was assigned three rats.
After the experimental animals stable in the clean environment for 24 h, 10 μL of blood was withdrawn via tail vein and diluted into 2 mL of diluents quickly. […] Then the prepared drugs were administered intragastrically to the animals. […] The animals were killed after 24 h.

SD rat heart rate = assay: Effect of S1P1 receptor agonists on rat heart rate; type: in vivo; settings: for HR delta %: (lowest heart rate postdose − pre-administration)/pre-administration; for heart rate pre-administration: before administration
Protocol: 2.1 Experimental animals: SD rats, purchased from Weitonglihua. Weight: 200-240 g, male. Every test group was assigned three rats. The normal rats were set as control group and determined as the medicated group parallelly for three times. The positive drug FTY720 was repeated three times.
2.2 Apparatus: Intelligent non-invasive blood pressure measurement meter (Softron, Japan).
(1) Preparation: The drug was dissolved to reach a concentration of 2.5 mg/mL.
(1) Determination of rat heart rate before administration. Repeat for three times.
(2) Administration: intragastric administration after SD rats weighed.
(3) Determination of rat heart rate at the time 0.5 h, 1 h, 3 h, 6 h, 8 h and 24 h after administration. Repeat for three times
Every drug was tested with three SD rats parallelly. […] Delta % of heart rate=(the lowest heart rate postdose−the heart rate pre-administration)/the heart rate pre-administration, reflects the influence of drugs on rat heart rate.

[2] = Table 6, intragastric, listed as FTY720-1
[3] = Table 6, intragastric, listed as FTY720-2

## CCCCCCCCc1ccc(CCC(N)(CO)CO)cc1 [FTY720, reference compound]
[1]; Table 1, 10 mg/Kg intragastric
  LYM 0 h: 4.20 ± 0.57 × 10^9/L
[1]; Table 1, 10 mg/Kg intragastric, 1 h after administration
  LYM 1 h: 4.75 ± 2.76 × 10^9/L
[1]; Table 1, 10 mg/Kg intragastric, 2 h after administration
  LYM 2 h: 2.45 ± 0.07 × 10^9/L
[1]; Table 1, 10 mg/Kg intragastric, 4 h after administration
  LYM 4 h: 2.75 ± 0.78 × 10^9/L
[1]; Table 1, 10 mg/Kg intragastric, 8 h after administration
  LYM 8 h: 1.80 ± 0.14 × 10^9/L
[1]; Table 1, 10 mg/Kg intragastric, 12 h after administration
  LYM 12 h: 1.00 ± 0.00 × 10^9/L
[1]; Table 1, 10 mg/Kg intragastric, 24 h after administration
  LYM 24 h: 2.60 ± 0.42 × 10^9/L
[1]; Table 1, lymphocyte count change vs 0 h, 10 mg/Kg intragastric, 1 h
  compared with 0 h (%) 1 h: −13.10%
[1]; Table 1, lymphocyte count change vs 0 h, 10 mg/Kg intragastric, 2 h
  compared with 0 h (%) 2 h: 41.67%
[1]; Table 1, lymphocyte count change vs 0 h, 10 mg/Kg intragastric, 4 h
  compared with 0 h (%) 4 h: 34.52%
[1]; Table 1, lymphocyte count change vs 0 h, 10 mg/Kg intragastric, 8 h
  compared with 0 h (%) 8 h: 57.14%
[1]; Table 1, lymphocyte count change vs 0 h, 10 mg/Kg intragastric, 12 h
  compared with 0 h (%) 12 h: 76.19%
[1]; Table 1, lymphocyte count change vs 0 h, 10 mg/Kg intragastric, 24 h
  compared with 0 h (%) 24 h: 38.10%
[1]; Table 3, 10 mg/Kg intragastric
  LYM 0 h: 4.97 ± 1.06 ×10^9/L
  Δ %: 64.09%
[1]; Table 3, 10 mg/Kg intragastric, 1 h
  LYM 1 h: 3.18 ± 0.52 ×10^9/L
[1]; Table 3, 10 mg/Kg intragastric, 2 h
  LYM 2 h: 3.15 ± 0.71 ×10^9/L
[1]; Table 3, 10 mg/Kg intragastric, 4 h
  LYM 4 h: 3.44 ± 1.30 ×10^9/L
[1]; Table 3, 10 mg/Kg intragastric, 6 h
  LYM 6 h: 2.78 ± 0.84 ×10^9/L
[1]; Table 3, 10 mg/Kg intragastric, 8 h
  LYM 8 h: 2.32 ± 0.90 ×10^9/L
[1]; Table 3, 10 mg/Kg intragastric, 12 h
  LYM 12 h: 2.33 ± 0.75 ×10^9/L
[1]; Table 3, 10 mg/Kg intragastric, 23 h
  LYM 23 h: 1.78 ± 0.29 ×10^9/L
[1]; Table 5, 10 mg/Kg intragastric
  LYM 0 h: 3.80 ± 0.14 × 10^9/L
[1]; Table 5, 10 mg/Kg intragastric, 1 h
  LYM 1 h: 2.30 ± 0.85 × 10^9/L
[1]; Table 5, 10 mg/Kg intragastric, 4 h
  LYM 4 h: 1.20 ± 0.36 × 10^9/L
[1]; Table 5, 10 mg/Kg intragastric, 8 h
  LYM 8 h: 1.07 ± 0.50 × 10^9/L
[1]; Table 5, 10 mg/Kg intragastric, 12 h
  LYM 12 h: 1.27 ± 0.23 × 10^9/L
[1]; Table 5, 10 mg/Kg intragastric, 24 h
  LYM 24 h: 1.60 ± 0.57 × 10^9/L
[1]; Table 5
  Δ %: 71.93%
[1]; Table 7, 10 mg/Kg intragastric
  LYM 0 h: 3.80 ± 0.14 × 10^9/L
[1]; Table 7, 10 mg/Kg intragastric, 1 h
  LYM 1 h: 2.30 ± 0.85 × 10^9/L
[1]; Table 7, 10 mg/Kg intragastric, 4 h
  LYM 4 h: 1.20 ± 0.36 × 10^9/L
[1]; Table 7, 10 mg/Kg intragastric, 8 h
  LYM 8 h: 1.07 ± 0.50 × 10^9/L
[1]; Table 7, 10 mg/Kg intragastric, 12 h
  LYM 12 h: 1.27 ± 0.23 × 10^9/L
[1]; Table 7, 10 mg/Kg intragastric, 24 h
  LYM 24 h: 1.60 ± 0.57 × 10^9/L
[1]; Table 7
  Δ %: 71.93%
[1]; Table 8, 10 mg/Kg intragastric
  LYM 0 h: 4.20 ± 0.57 × 10^9/L
[1]; Table 8, 10 mg/Kg intragastric, 1 h
  LYM 1 h: 4.75 ± 2.76 × 10^9/L
[1]; Table 8, 10 mg/Kg intragastric, 4 h
  LYM 4 h: 2.75 ± 0.78 × 10^9/L
[1]; Table 8, 10 mg/Kg intragastric, 8 h
  LYM 8 h: 1.80 ± 0.14 × 10^9/L
[1]; Table 8, 10 mg/Kg intragastric, 12 h
  LYM 12 h: 1.00 ± 0.00 × 10^9/L
[1]; Table 8, 10 mg/Kg intragastric, 24 h
  LYM 24 h: 2.60 ± 0.42 × 10^9/L
[1]; Table 8
  Δ %: 76.19%
SD rat heart rate; Table 2, listed as FTY720-1
  HR delta %: 19.60%
SD rat heart rate; Table 2, listed as FTY720-2
  HR delta %: 17.80%
SD rat heart rate; Table 2, listed as FTY720-3
  HR delta %: 14.00%
SD rat heart rate; Table 2, listed as average of FTY720
  HR delta %: 16.6%
SD rat heart rate; Table 2, intragastric, 0.5 h after administration, listed as FTY720-1
  heart rate 0.5 h: 392.33
SD rat heart rate; Table 2, intragastric, 0.5 h after administration, listed as FTY720-2
  heart rate 0.5 h: 361.28
SD rat heart rate; Table 2, intragastric, 0.5 h after administration, listed as FTY720-3
  heart rate 0.5 h: 379.67
SD rat heart rate; Table 2, intragastric, 0.5 h after administration, listed as average of FTY720
  heart rate 0.5 h: 377.76
SD rat heart rate; Table 2, intragastric, 1 h after administration, listed as FTY720-1
  heart rate 1 h: 361.00
SD rat heart rate; Table 2, intragastric, 1 h after administration, listed as FTY720-2
  heart rate 1 h: 331.71
SD rat heart rate; Table 2, intragastric, 1 h after administration, listed as FTY720-3
  heart rate 1 h: 370.62
SD rat heart rate; Table 2, intragastric, 1 h after administration, listed as average of FTY720
  heart rate 1 h: 354.44
SD rat heart rate; Table 2, intragastric, 3 h after administration, listed as FTY720-1
  heart rate 3 h: 318.50
SD rat heart rate; Table 2, intragastric, 3 h after administration, listed as FTY720-2
  heart rate 3 h: 329.33
SD rat heart rate; Table 2, intragastric, 3 h after administration, listed as FTY720-3
  heart rate 3 h: 355.83
SD rat heart rate; Table 2, intragastric, 3 h after administration, listed as average of FTY720
  heart rate 3 h: 334.55
SD rat heart rate; Table 2, intragastric, 6 h after administration, listed as FTY720-1
  heart rate 6 h: 325.78
SD rat heart rate; Table 2, intragastric, 6 h after administration, listed as FTY720-2
  heart rate 6 h: 327.82
SD rat heart rate; Table 2, intragastric, 6 h after administration, listed as FTY720-3
  heart rate 6 h: 342.00
SD rat heart rate; Table 2, intragastric, 6 h after administration, listed as average of FTY720
  heart rate 6 h: 331.86
SD rat heart rate; Table 2, intragastric, 8 h after administration, listed as FTY720-1
  heart rate 8 h: 341.00
SD rat heart rate; Table 2, intragastric, 8 h after administration, listed as FTY720-2
  heart rate 8 h: 338.78
SD rat heart rate; Table 2, intragastric, 8 h after administration, listed as FTY720-3
  heart rate 8 h: 342.50
SD rat heart rate; Table 2, intragastric, 8 h after administration, listed as average of FTY720
  heart rate 8 h: 340.76
SD rat heart rate; Table 2, intragastric, 24 h after administration, listed as FTY720-1
  heart rate 24 h: 329.67
SD rat heart rate; Table 2, intragastric, 24 h after administration, listed as FTY720-2
  heart rate 24 h: 365.07
SD rat heart rate; Table 2, intragastric, 24 h after administration, listed as FTY720-3
  heart rate 24 h: 363.44
SD rat heart rate; Table 2, intragastric, 24 h after administration, listed as average of FTY720
  heart rate 24 h: 352.72
SD rat heart rate; Table 2, intragastric, listed as FTY720-1
  heart rate pre-administration: 396.28
SD rat heart rate; Table 2, intragastric, listed as FTY720-2
  heart rate pre-administration: 398.60
SD rat heart rate; Table 2, intragastric, listed as FTY720-3
  heart rate pre-administration: 398.22
SD rat heart rate; Table 2, intragastric, listed as average of FTY720
  heart rate pre-administration: 397.70
SD rat heart rate; Table 4
  Δ % = the percentage of change of rat heart rate before and after administration: 26.16%
SD rat heart rate; Table 4, intragastric, 0.5 h
  heart rate 0.5 h: 356.33
SD rat heart rate; Table 4, intragastric, 1 h
  heart rate 1 h: 319.22
SD rat heart rate; Table 4, intragastric, 3 h
  heart rate 3 h: 288.58
SD rat heart rate; Table 4, intragastric, 6 h
  heart rate 6 h: 280.13
SD rat heart rate; Table 4, intragastric, 8 h
  heart rate 8 h: 308.08
SD rat heart rate; Table 4, intragastric, 24 h
  heart rate 24 h: 323.25
SD rat heart rate; Table 4, intragastric, time 0, before administration
  heart rate 0: 379.42
SD rat heart rate; Table 6, listed as FTY720-1
  HR delta %: 21.86%
SD rat heart rate; Table 6, listed as FTY720-2
  HR delta %: 22.61%
SD rat heart rate; Table 6, intragastric, 1 h, listed as FTY720-1
  heart rate 1 h: 389.62 ± 30.01
SD rat heart rate; Table 6, intragastric, 1 h, listed as FTY720-2
  heart rate 1 h: 389.62 ± 23.39
SD rat heart rate; [2]
  heart rate 4 h: 340.17 ± 32.04
  heart rate 12 h: 360.62 ± 18.19
  heart rate pre-administration: 435.36 ± 47.99
SD rat heart rate; [3]
  heart rate 4 h: 354.27 ± 15.79
  heart rate 12 h: 335.67 ± 16.30
  heart rate pre-administration: 433.75 ± 30.84
SD rat heart rate; Table 6, intragastric, 8 h, listed as FTY720-1
  heart rate 8 h: 361.69 ± 27.99
SD rat heart rate; Table 6, intragastric, 8 h, listed as FTY720-2
  heart rate 8 h: 346.91 ± 26.41
SD rat heart rate; Table 6, intragastric, 24 h, listed as FTY720-1
  heart rate 24 h: 410.31 ± 32.13
SD rat heart rate; Table 6, intragastric, 24 h, listed as FTY720-2
  heart rate 24 h: 370.18 ± 26.82
SD rat heart rate; Table 9
  HR delta %: 17.80%
SD rat heart rate; Table 9, intragastric, 0.5 h
  heart rate 0.5 h: 361.28 ± 22.91
SD rat heart rate; Table 9, intragastric, 1 h
  heart rate 1 h: 331.71 ± 12.26
SD rat heart rate; Table 9, intragastric, 3 h
  heart rate 3 h: 329.33 ± 11.32
SD rat heart rate; Table 9, intragastric, 6 h
  heart rate 6 h: 327.82 ± 15.60
SD rat heart rate; Table 9, intragastric, 8 h
  heart rate 8 h: 338.78 ± 12.07
SD rat heart rate; Table 9, intragastric, 24 h
  heart rate 24 h: 365.07 ± 19.47
SD rat heart rate; Table 9, intragastric
  heart rate pre-administration: 398.60 ± 33.20
